Patent US20050096381A1, “Derivatives of isoflavones” (YEDA & MEDICAL RESEARCH, priority 2002, published 2005)
Entries after “also recorded” stand apart in the source; their conditions may differ. Where two headings read alike, the source gives them in different places.

Tests used:
[1] = test system: human vascular smooth muscle cells (VSMC), expressing mainly ERβ; test: cells; type: cell-based
Description: Human umbilical artery smooth muscle cells, expressing mainly ERβ, were prepared as previously described with minor modifications (Somjen D. et al. 1998 Hypertension 32:39-45). In brief, umbilical cords were collected shortly after delivery. The umbilical arteries were isolated by dissection, cleaned of blood and adventitia and then cut into tiny slices (1-3 mm). The segments were kept in culture in medium 199 containing 20% FCS, glutamine and antibiotics. […] Cells were fed twice a week and, upon confluence, trypsinized and transferred to 24-well dishes. Cells were used only at passages 1-3 when expression of smooth muscle actin was clearly demonstrable.
(§1) Assessment of DNA synthesis was performed by [^3H]-thymidine incorporation in these cells. Cells were grown until subconfluence and then treated with various hormones or agents as indicated. Forty-eight hours later, [^3H] thymidine was added for two hours. Cells were then treated with 10% ice-cold trichloroacetic (TCA) for 5 min and washed twice with 5% TCA and then with cold ethanol. The cellular layer was dissolved in 0.3 ml of 0.3M NaOH, samples were taken and [^3H] thymidine incorporation into DNA was determined. The concentration of hormone to produce half-maximal induction (EC50) or inhibition (IC50) was calculated from the dose response curves.
(§2) In the second phase the cytotoxicity of isoflavone-daunomycin conjugates was tested after 48 h of incubation in normal cells [VSMC, E304, non transformed enterocytes (TEC)] and malignant cells [human adrenocortical carcinoma (NCI-H295R), human colon cancer cells (colo320) and c-K-ras transformed rat enterocytes (R1)] using uptake of [^3H]-thymidine as a proliferation marker.

[2] = test system: E304 endothelial cells (expressing mainly ERα); test: DNA synthesis by [3H]-thymidine incorporation in E304 cells; type: cell-based, human
Description: E304 cells, expressing mainly ERα, an endothelial cell line derived from a human umbilical vein, were purchased from American Type Culture Collection (ATCC), Rockville, Md., and grown in medium 199 containing 10% FCS, glutamine and antibiotics.
as §1, §2

[3] = test system: human adrenocortical carcinoma cells (NCI-H295R); test: cells; type: cell-based; conditions: for IC50: read-out: concentration required for 50% inhibition of DNA synthesis (IC50), NCI-H295R
Description: These cells were purchased from ATTC (Rockville, Md.) and grown in Dulbecco's modified Eagle's medium containing antibiotics.
as §1, §2

[4] = test system: nontransformed rat enterocytes (IEC); test: cells; type: cell-based; conditions: read-out: concentration required for 50% inhibition of DNA synthesis (IC50), IEC
Description: (§3) Cell lines were obtained from Prof. N. Arber, Ichilov Hospital, Tel-Aviv, Israel and grown as described previously (Arber N et al. 1996 Oncogene 12:1903-1908).
as §1, §2

[5] = test system: c-K-ras transformed rat enterocytes (R1); test: cells; type: cell-based; conditions: read-out: concentration required for 50% inhibition of DNA synthesis (IC50), R1
Description: as §3, §1, §2

[6] = test system: human colon cancer cells (colo320); test: DNA synthesis by [3H]-thymidine incorporation in colo320 cells; type: cell-based
Description: These cells were purchased from ATTC (Rockville, Md.) and grown in RPMI medium containing 20 mM HEPES and 10% fetal calf serum.
as §1, §2

[7] = test system: creatine kinase (CK) specific activity, an estrogen responsive enzyme; test: Stimulation of the specific activity of creatine kinase (CK) in rat tissues in vivo; conditions: for CK specific activity (experimental/control), aorta: Ao; for CK specific activity (experimental/control), aorta / CK specific activity (experimental/control), diaphysis / CK specific activity (experimental/control), epiphysis / CK specific activity (experimental/control), left ventricle of the heart / CK specific activity (experimental/control), pituitary / CK specific activity (experimental/control), uterus: immature female rats, i.p., 24 h, mean ± SD, n = 5, control = 1.0; for CK specific activity (experimental/control), diaphysis: Dia; for CK specific activity (experimental/control), epiphysis: Epi; for CK specific activity (experimental/control), left ventricle of the heart: LV; for CK specific activity (experimental/control), pituitary: Pi; for CK specific activity (experimental/control), uterus: Ut; for effect on CK specific activity in rat tissues (in words): uterus, pituitary, epiphysis, diaphysis, aorta, left ventricle
Description: The ability of the isoflavone derivatives to bind estrogen receptor and/or to modulate estrogen receptor response may be examined by any assay known in the art. A convenient assay described herein as a non-limiting example utilizes the specific activity of creatine kinase (CK), an estrogen responsive enzyme, as a parameter for the estrogen-like activity of the isoflavone derivatives of the present invention.
The rats were killed by decapitation 24 h after i.p. injection. The various organs were removed and stored at −20° C. until processed for CK activity as previously described (Somjen D. et al. 1998 Hypertension 32:39-45).

Recombinant ERβ protein = Recombinant ERβ protein (Homo sapiens, UniProt Q92731); test: Estrogen receptor-binding assay, [3H]-17β-estradiol displacement, ERβ; conditions: for binding activity to ERβ: result in words
Recombinant ERβ protein, sequence (Q92731 whole entry, species assumed): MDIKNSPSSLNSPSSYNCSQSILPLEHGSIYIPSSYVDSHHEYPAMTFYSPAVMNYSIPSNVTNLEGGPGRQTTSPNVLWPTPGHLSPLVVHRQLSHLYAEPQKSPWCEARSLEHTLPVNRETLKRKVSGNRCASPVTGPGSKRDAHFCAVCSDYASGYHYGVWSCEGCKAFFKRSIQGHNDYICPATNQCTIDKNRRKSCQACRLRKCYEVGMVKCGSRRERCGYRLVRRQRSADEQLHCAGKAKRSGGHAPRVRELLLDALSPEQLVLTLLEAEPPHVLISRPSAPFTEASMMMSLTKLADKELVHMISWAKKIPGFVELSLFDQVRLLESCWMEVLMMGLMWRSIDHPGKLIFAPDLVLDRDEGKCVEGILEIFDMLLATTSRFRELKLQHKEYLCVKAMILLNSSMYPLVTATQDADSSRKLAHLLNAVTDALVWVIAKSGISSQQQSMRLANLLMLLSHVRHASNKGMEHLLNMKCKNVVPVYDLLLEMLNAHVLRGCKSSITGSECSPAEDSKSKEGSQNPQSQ
Description: (§4) Biotinylated anti-ER antibody (α or β, prepared as described in Strasburger C J & Kohen F 1990 Methods Enzymol. 184:481-496), 100 ng/well in 100 μl of binding buffer, was added to each well, and the reaction mixtures were incubated with shaking for 2 h and 30 min at room temperature. The reaction mixtures were then decanted, and each well was washed once with binding buffer. Dilute sodium hydroxide (0.1 N, 300 μl) was added to each well. After shaking for 20 min, an aliquot (200 μl) was removed from each well and added to a vial containing scintillation fluid. The vials were then counted for radioactivity in a beta scintillation counter.

Recombinant ERα protein = biological target: T1, Recombinant ERα protein (Homo sapiens, UniProt P03372); test: Estrogen receptor-binding assay, [3H]-17β-estradiol displacement, ERα; conditions: result in words
T1 sequence (P03372 1-595): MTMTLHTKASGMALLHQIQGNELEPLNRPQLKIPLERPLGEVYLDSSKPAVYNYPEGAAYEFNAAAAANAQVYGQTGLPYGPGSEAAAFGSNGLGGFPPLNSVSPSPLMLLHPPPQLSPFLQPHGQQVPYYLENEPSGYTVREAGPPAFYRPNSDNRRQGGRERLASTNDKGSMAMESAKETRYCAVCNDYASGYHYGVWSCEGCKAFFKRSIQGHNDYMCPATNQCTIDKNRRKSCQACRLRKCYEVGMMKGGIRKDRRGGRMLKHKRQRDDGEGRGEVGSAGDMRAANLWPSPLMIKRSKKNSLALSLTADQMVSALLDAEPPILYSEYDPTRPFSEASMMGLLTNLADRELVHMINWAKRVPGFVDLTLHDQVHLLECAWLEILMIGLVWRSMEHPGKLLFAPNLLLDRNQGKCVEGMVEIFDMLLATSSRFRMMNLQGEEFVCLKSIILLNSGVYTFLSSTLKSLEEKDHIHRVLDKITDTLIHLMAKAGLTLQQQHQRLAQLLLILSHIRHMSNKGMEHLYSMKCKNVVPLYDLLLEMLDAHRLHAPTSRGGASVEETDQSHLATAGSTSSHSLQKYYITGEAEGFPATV
Description: as §4

[8] = 48 h incubation, [3H]-thymidine, read-out: concentration required for 50% inhibition of DNA synthesis (IC50), VSMC
[9] = 48 h incubation, read-out: concentration required for 50% inhibition of DNA synthesis (IC50), E304
[10] = 48 h incubation, [3H]-thymidine

| Molecule | IC50 [2, 9] | CK specific activity (experimental/control), aorta [7] | CK specific activity (experimental/control), diaphysis [7] | CK specific activity (experimental/control), epiphysis [7] | CK specific activity (experimental/control), left ventricle of the heart [7] | CK specific activity (experimental/control), pituitary [7] | CK specific activity (experimental/control), uterus [7] | effect on CK specific activity in rat tissues (in words) [7] | binding activity to ERβ (Recombinant ERβ protein) | binding activity to ERα (Recombinant ERα protein) | also measured |
| --- | --- | --- | --- | --- | --- | --- | --- | --- | --- | --- | --- |
| 6-carboxymethyl genistein daunomycin conjugate [Cgen-daunomycin] | 60 nM |  |  |  |  |  |  |  |  |  | IC50 ([1]; 48 h incubation, [3H]-thymidine, listed as 6-carboxymethyl genistein daunomycin conjugate, read-out: concentration required for 50% inhibition of DNA synthesis (IC50), VSMC): 20 nM; IC50 [1, 8]: 12 nM; IC50 [3]: 16 nM; IC50 [4]: 2000 nM; IC50 [5]: 70 nM |
| COc1cccc2c1C(=O)c1c(O)c3c(c(O)c1C2=O)C[C@@](O)(C(C)=O)C[C@@H]3O[C@H]1C[C@H](N)[C@H](O)[C@H](C)O1 [Daunomycin, daunomycin, reference compound] | 300 nM |  |  |  |  |  |  |  |  |  | IC50 ([1]; Homo sapiens, VSMC, read-out: concentration required for 50% inhibition of DNA synthesis (IC50), VSMC, 48 h incubation, [3H]-thymidine): 700 nM; IC50 ([1]; read-out: concentration required for 50% inhibition of DNA synthesis (IC50), VSMC, 48 h incubation, [3H]-thymidine): 650 nM; IC50 ([2]; read-out: concentration required for 50% inhibition of DNA synthesis (IC50), E304, 48 h incubation): 800 nM; IC50 ([6]; Homo sapiens, COLO 320, read-out: concentration required for 50% inhibition of DNA synthesis (IC50), Colo320): 300 nM; IC50 ([4]; Rattus norvegicus): 550 nM; IC50 ([5]; Rattus norvegicus): 850 nM |
| C[C@]12CC[C@@H]3c4ccc(O)cc4CC[C@H]3[C@@H]1CC[C@@H]2O [Estradiol, 17β-estradiol] |  | 2.43 ± 0.06 | 2.75 ± 0.23 | 1.85 ± 0.16 | 1.53 ± 0.13 | 1.45 ± 0.05 | 1.49 ± 0.13 | stimulated the CK specific activity in all the rat tissues |  |  |  |
| O=C(O)COc1ccc2c(=O)c(-c3ccc(O)cc3)coc2c1 [7-(O)-carboxymethyl daidzein] |  |  |  |  |  |  |  |  | did not show any significant binding activity | did not show any significant binding activity |  |
| COc1ccc(-c2coc3cc(O)cc(O)c3c2=O)cc1 [Biochanin A, biochanin A] |  | 2 ± 0.18 | 1.9 ± 0.23 | 2.38 ± 0.18 | 1.42 ± 0.04 | 1.58 ± 0.05 | 1.42 ± 0.13 | stimulated the CK specific activity in all the rat tissues | did not show any significant binding activity | did not show any significant binding activity |  |
| 7-(O)-carboxymethyl daidzein-daunomycin conjugate [Cdaid-daunomycin] |  |  |  |  |  |  |  |  |  |  | IC50 [1, 8]: 22 nM; IC50 ([3]; 48 h incubation, [3H]-thymidine, listed as 7-(O)-carboxymethyl daidzein-daunomycin conjugate): 7 nM; IC50 [3, 10]: 6 nM |
| 6-carboxymethyl biochanin A daunomycin conjugate [Cbio-daunomycin] | 5 nM |  |  |  |  |  |  |  |  |  | IC50 ([6]; 48 h incubation, [3H]-thymidine, read-out: concentration required for 50% inhibition of DNA synthesis (IC50), Colo320): 40 nM; IC50 [3, 10]: 60 nM |
| O=c1c(-c2ccc(O)cc2)coc2cc(O)ccc12 [Daidzein, reference compound] |  |  |  |  |  |  |  |  | did not show any significant binding activity | did not show any significant binding activity |  |
| O=C(O)Cc1c(O)cc2occ(-c3ccc(O)cc3)c(=O)c2c1O [6-carboxymethyl genistein] |  |  |  |  |  |  |  | caused an increase in CK activity in rat tissues |  |  | EC50 ([1]; Homo sapiens, VSMC, [3H]-thymidine incorporation, read-out: induced proliferation, EC50 in VSMC): 3 nM; IC50 (Recombinant ERβ protein; recombinant ERβ, [3H]-17β-estradiol 3 nM, read-out: inhibition of binding of [3H]-estradiol to ERβ, relative binding affinity values (IC50)): 200 nM; EC50 ([3]; Homo sapiens, NCI-H295R, [3H]-thymidine incorporation, read-out: induced proliferation, EC50 in NCI-H295R): 2 nM |
| COc1ccc(-c2coc3cc(O)c(CC(=O)O)c(O)c3c2=O)cc1 [6-carboxymethyl biochanin A] |  | 1.63 ± 0.11 | 1.51 ± 0.05 | 1.61 ± 0.17 | 1.91 ± 0.16 | 1.54 ± 0.05 | 0.89 ± 0.12 | increased the CK specific activity in all the rat tissues with the exception of the uterus; also recorded: caused an increase in CK activity in rat tissues | did not show any significant binding activity | did not show any significant binding activity | stimulatory response of E2 to CK specific activity on combination with E2 (in words) ([7]; rats treated with E2 plus compound): inhibited in all the tissues |
